What all share (format): cell-based
For test [1], the target named is KDR (phospho-KDR, VEGF165-stimulated HUVEC cells) (Homo sapiens (Human), UniProt P35968). In words: KDR autophosphorylation ELISA in HUVEC cells (Example G). As to conditions: cellular activity; KDR autophosphorylation ELISA in HUVEC cells. In short, it runs like this:
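HUVECs were serum-starved 24 h, given compound as an 8-point dilution series (0.3% DMSO final) for 1 h, then stimulated with 100 ng/mL VEGF165 for 5 min. Lysate phospho-KDR was quantified by sandwich ELISA against a phospho-KDR standard, and IC50s came from a 4-parameter logistic fit.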
(An ELISA detects its analyte on a solid surface through an enzyme-linked reagent.)

Test [2] has as its target Met (phospho-Met, HGF-stimulated PC-3 prostate cancer cells) (Homo sapiens (Human), UniProt P08581). In words: Met autophosphorylation ELISA in PC-3 cells (Example F). As to conditions: cellular activity; Met autophosphorylation ELISA in PC-3 cells; read-out: c-Met IC50. The method in brief:
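IC50 values derive from a 4-parameter logistic fit of phospho-Met (panTyr) sandwich ELISA signals in PC-3 lysates, scaled between DMSO and reference-inhibitor wells. Cells, starved 3 h in serum-free medium, had 1 h compound exposure (8 doses, 0.3% DMSO) before 10 min stimulation with 100 ng/mL HGF.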

For test [3], the target named is AXL (phospho-AXL, Gas6-stimulated A-172 glioblastoma cells) (Homo sapiens (Human), UniProt P30530). As to the kind of experiment: AXL autophosphorylation ELISA in A-172 cells (Example E). In short, it runs like this:
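Phospho-AXL in lysates was quantified by ELISA, normalised to DMSO (100%) and reference inhibitor (0%) controls. IC50 by 4-parameter logistic fit.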

The target in test [4] is Mer (phospho-Mer, MERTK-transfected 293A cells) (Homo sapiens (Human), UniProt Q12866). In words: Mer autophosphorylation ELISA in transient transfected 293A cells (Example H). The settings on record: cellular activity; Mer autophosphorylation ELISA in transient transfected 293A cells. In short, it runs like this: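 Human MERTK transiently transfected into 293A cells; compounds as 8-point dose curve in serum-free medium (0.3% DMSO final), 1 h. Lysates assayed by phospho-Mer sandwich ELISA against phospho-Mer standard; DMSO = 100%, reference inhibitor = 0% activity; IC50 from 4-parameter logistic fit.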

Where [5] appears, read: cellular activity, AXL autophosphorylation ELISA in A-172 cells, read-out: Axl IC50.

SMILES strings stand for the structures. Read-outs that look alike come from different tables or passages of the source.

KDR (phospho-KDR, VEGF165-stimulated HUVEC cells), sequence (P35968 20-1356): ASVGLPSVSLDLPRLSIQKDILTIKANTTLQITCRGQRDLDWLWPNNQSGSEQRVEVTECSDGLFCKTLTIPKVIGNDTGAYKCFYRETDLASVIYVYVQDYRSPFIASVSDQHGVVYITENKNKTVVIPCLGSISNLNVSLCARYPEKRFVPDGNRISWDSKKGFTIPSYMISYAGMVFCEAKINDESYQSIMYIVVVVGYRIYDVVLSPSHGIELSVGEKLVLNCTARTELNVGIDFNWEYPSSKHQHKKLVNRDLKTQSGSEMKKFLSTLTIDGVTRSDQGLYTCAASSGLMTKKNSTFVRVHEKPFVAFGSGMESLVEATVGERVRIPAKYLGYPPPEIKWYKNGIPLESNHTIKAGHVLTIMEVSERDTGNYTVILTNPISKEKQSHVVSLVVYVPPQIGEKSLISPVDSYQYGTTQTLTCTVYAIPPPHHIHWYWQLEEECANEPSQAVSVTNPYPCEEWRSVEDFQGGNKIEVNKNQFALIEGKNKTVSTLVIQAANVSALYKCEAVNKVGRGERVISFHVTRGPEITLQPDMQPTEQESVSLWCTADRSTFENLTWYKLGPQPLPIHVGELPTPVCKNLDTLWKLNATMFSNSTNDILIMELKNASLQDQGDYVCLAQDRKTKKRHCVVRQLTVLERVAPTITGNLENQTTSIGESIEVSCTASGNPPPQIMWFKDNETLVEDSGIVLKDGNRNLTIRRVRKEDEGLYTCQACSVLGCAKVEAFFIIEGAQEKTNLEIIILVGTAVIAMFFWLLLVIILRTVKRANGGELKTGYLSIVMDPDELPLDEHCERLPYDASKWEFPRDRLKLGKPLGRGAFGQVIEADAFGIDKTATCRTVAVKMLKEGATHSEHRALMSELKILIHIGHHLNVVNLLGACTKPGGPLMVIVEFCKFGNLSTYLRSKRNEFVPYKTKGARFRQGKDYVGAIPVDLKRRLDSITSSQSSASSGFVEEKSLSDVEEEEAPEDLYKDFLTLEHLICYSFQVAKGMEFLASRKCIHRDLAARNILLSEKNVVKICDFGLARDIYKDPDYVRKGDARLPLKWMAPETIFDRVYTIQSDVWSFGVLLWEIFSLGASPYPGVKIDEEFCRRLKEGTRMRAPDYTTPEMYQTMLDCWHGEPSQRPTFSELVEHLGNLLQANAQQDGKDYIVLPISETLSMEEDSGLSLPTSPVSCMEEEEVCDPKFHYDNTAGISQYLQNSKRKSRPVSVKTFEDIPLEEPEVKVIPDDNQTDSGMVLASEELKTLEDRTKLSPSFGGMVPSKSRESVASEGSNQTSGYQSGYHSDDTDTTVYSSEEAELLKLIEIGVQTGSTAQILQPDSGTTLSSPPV
Met (phospho-Met, HGF-stimulated PC-3 prostate cancer cells), sequence (P08581 25-1390): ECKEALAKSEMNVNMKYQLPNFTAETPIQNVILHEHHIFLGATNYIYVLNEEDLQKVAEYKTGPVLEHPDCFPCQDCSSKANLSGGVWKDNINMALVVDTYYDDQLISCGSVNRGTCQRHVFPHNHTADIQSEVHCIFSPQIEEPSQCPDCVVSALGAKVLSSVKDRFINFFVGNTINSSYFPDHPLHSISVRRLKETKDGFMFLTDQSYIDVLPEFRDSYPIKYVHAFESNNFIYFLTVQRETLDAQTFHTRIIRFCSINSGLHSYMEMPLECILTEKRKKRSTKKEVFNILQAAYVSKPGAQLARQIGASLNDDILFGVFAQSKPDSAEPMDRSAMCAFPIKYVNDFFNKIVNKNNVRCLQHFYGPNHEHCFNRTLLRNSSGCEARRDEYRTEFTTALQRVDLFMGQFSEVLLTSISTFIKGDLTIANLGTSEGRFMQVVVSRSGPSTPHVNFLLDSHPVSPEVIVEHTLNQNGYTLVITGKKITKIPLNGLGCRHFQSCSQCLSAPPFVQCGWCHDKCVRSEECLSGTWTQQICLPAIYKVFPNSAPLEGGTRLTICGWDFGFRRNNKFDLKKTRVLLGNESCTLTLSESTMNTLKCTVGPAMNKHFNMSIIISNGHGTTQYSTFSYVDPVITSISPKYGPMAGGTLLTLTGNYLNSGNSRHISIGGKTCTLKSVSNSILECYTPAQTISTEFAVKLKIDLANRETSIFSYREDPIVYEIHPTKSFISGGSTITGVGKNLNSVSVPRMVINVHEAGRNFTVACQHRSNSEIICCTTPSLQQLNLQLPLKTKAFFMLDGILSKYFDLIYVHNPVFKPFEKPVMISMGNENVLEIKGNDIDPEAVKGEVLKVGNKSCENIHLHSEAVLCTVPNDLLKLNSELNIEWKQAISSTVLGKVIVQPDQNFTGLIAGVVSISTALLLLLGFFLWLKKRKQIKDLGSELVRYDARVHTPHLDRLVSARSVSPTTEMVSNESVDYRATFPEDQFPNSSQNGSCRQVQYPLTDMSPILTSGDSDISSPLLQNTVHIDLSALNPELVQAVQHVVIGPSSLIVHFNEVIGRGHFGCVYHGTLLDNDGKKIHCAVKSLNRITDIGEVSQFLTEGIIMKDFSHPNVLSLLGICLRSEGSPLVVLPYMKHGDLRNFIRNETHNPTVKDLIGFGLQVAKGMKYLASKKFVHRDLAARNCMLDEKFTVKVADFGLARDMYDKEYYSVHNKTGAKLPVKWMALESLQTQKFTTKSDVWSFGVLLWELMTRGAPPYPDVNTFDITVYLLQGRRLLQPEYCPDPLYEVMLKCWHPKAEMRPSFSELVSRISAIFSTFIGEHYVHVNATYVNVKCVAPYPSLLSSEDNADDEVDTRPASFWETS
AXL (phospho-AXL, Gas6-stimulated A-172 glioblastoma cells), sequence (P30530 26-894): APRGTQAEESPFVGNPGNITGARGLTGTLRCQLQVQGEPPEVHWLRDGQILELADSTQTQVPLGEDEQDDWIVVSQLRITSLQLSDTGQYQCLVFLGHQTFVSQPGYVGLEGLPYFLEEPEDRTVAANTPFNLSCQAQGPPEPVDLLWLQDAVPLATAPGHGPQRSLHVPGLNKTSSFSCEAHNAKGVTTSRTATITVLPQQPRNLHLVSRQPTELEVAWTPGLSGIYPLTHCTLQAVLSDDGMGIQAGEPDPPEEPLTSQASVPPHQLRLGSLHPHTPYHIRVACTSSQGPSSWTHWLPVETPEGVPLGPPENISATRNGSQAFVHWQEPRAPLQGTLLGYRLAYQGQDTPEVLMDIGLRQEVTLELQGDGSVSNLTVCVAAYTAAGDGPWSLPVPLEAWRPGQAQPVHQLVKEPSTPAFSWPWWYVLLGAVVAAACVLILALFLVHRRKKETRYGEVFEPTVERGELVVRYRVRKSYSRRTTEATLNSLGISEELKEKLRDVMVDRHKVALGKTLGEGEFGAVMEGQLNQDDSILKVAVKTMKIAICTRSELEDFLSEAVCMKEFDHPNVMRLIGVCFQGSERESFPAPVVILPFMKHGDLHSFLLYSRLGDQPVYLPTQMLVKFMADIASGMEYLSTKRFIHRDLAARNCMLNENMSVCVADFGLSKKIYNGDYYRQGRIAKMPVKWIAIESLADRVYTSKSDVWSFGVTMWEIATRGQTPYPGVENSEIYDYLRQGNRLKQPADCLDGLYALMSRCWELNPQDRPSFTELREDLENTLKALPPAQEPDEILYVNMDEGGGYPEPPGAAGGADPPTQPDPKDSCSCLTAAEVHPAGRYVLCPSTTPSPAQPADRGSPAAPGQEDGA
Mer (phospho-Mer, MERTK-transfected 293A cells), sequence (Q12866 21-999): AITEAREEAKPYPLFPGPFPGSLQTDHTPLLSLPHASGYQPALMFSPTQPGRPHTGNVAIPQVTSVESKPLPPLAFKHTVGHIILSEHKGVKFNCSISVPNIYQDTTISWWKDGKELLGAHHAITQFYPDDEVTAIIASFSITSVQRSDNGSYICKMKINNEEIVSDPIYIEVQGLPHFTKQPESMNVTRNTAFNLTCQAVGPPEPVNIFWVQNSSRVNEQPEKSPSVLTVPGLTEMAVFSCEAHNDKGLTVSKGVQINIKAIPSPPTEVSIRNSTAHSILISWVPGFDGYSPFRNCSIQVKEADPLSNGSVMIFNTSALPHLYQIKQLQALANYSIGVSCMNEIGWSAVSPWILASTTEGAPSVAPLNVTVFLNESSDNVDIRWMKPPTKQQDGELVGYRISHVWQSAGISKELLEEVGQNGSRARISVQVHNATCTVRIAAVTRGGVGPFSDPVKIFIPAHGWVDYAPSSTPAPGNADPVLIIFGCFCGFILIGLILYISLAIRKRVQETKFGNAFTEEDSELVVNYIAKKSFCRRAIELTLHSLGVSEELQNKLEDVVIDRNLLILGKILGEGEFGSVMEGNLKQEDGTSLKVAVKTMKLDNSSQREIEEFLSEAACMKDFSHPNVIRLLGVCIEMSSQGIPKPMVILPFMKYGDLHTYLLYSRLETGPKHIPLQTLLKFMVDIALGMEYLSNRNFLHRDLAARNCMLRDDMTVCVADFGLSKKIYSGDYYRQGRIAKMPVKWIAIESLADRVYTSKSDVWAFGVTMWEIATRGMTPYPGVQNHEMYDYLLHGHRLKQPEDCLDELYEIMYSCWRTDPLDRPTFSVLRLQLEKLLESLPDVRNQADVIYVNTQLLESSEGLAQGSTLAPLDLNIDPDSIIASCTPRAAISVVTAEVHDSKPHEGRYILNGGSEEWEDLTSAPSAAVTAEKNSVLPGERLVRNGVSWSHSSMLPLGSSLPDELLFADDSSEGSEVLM

In the case of `COc1cc(NC(=O)c2cn(C)c(C)c(-c3ccc(F)cc3)c2=O)c(F)cc1Oc1ccnc2cc(OC)c(OC)nc12` [Compound 745, N-[4-[(6,7-dimethoxy-1,5-naphthyridin-4-yl)oxy]-2-fluoro-5-methoxyphenyl]-5-(4-fluorophenyl)-1,6-dimethyl-4-oxopyridine-3-carboxamide], the IC50 – broadly, the concentration needed to halve the response being measured – was more than 0.3 µM in test [1], less than 0.1 µM in test [2], less than 0.1 µM in test [3] (setting [5]) and less than 0.1 µM in test [4].

As to `COc1cc2nccc(Oc3cc(F)c(NC(=O)c4cn(C)c(C)c(-c5ccc(F)cc5)c4=O)cc3C)c2nc1OC` [Compound 746, N-[4-[(6,7-dimethoxy-1,5-naphthyridin-4-yl)oxy]-2-fluoro-5-methylphenyl]-5-(4-fluorophenyl)-1,6-dimethyl-4-oxopyridine-3-carboxamide], the IC50 is more than 0.3 µM in test [1], less than 0.1 µM in test [2], less than 0.1 µM in test [3] (setting [5]) and less than 0.1 µM in test [4].

For `COc1cc2nccc(Oc3ccc(NC(=O)c4c(C)c(Br)c(C)n(-c5ccccc5)c4=O)cc3F)c2nc1OC` [Compound 747, 5-bromo-N-[4-[(6,7-dimethoxy-1,5-naphthyridin-4-yl)oxy]-3-fluorophenyl]-4,6-dimethyl-2-oxo-1-phenylpyridine-3-carboxamide], the IC50 in test [1] was 0.1 to 0.3 µM; in test [2] it was less than 0.1 µM; in test [3] (setting [5]), less than 0.1 µM; in test [4] it was less than 0.1 µM.

Regarding `Cn1cc(C(=O)Nc2ccc(Oc3ccnc4cccnc34)c(F)c2)c(=O)c(-c2ccc(F)cc2)c1CO` [Compound 748, N-[3-fluoro-4-(1,5-naphthyridin-4-yloxy)phenyl]-5-(4-fluorophenyl)-6-(hydroxymethyl)-1-methyl-4-oxopyridine-3-carboxamide], the IC50 in test [1] is more than 0.3 µM; in test [2], less than 0.1 µM; in test [3] (setting [5]), less than 0.1 µM; in test [4], less than 0.1 µM.

With `Cc1ccc2nccc(Oc3ccc(NC(=O)c4cn(C)c(CO)c(-c5ccc(F)cc5)c4=O)cc3F)c2n1` [Compound 749, N-[3-fluoro-4-[(6-methyl-1,5-naphthyridin-4-yl)oxy]phenyl]-5-(4-fluorophenyl)-6-(hydroxymethyl)-1-methyl-4-oxopyridine-3-carboxamide], the IC50 was more than 0.3 µM in test [1], less than 0.1 µM in test [2], less than 0.1 µM in test [3] (setting [5]) and less than 0.1 µM in test [4].

For the compound `COc1cc2nccc(Oc3ccc(NC(=O)c4c(C)n(C)nc(-c5ccc(F)cc5C)c4=O)cc3F)c2nc1OC` [Compound 750, N-[4-[(6,7-dimethoxy-1,5-naphthyridin-4-yl)oxy]-3-fluorophenyl]-6-(4-fluoro-2-methylphenyl)-2,3-dimethyl-5-oxopyridazine-4-carboxamide], the IC50 is 0.1 to 0.3 µM in test [1], less than 0.1 µM in test [2], less than 0.1 µM in test [3] and less than 0.1 µM in test [4].

In the case of `COc1cnc2c(Oc3cc(F)c(NC(=O)c4c(C)nc(C)c(-c5ccc(F)cc5C)c4O)cc3F)ccnc2c1` [Compound 751, N-[2,5-difluoro-4-[(7-methoxy-1,5-naphthyridin-4-yl)oxy]phenyl]-5-(4-fluoro-2-methylphenyl)-4-hydroxy-2,6-dimethylpyridine-3-carboxamide], the IC50 in test [1], in test [2], in test [3] (setting [5]) and in test [4] was less than 0.1 µM each time.

`CNC(=O)c1cc2nccc(Oc3cc(F)c(NC(=O)c4c(C)nc(C)c(-c5ccc(F)cc5C)c4O)cc3F)c2cc1C` [Compound 752, 4-[2,5-difluoro-4-[[5-(4-fluoro-2-methylphenyl)-4-hydroxy-2,6-dimethylpyridine-3-carbonyl]amino]phenoxy]-N,6-dimethylquinoline-7-carboxamide]: the IC50 in test [1], in test [2], in test [3] (setting [5]) and in test [4] was less than 0.1 µM each time.

For `COc1cc2nccc(Oc3ccc(NC(=O)c4c(OC)c(C(C)=O)cn(-c5ccc(F)cc5)c4=O)cc3)c2nc1OC` [Compound 753, 5-acetyl-N-[4-[(6,7-dimethoxy-1,5-naphthyridin-4-yl)oxy]phenyl]-1-(4-fluorophenyl)-4-methoxy-2-oxopyridine-3-carboxamide], the IC50 in test [1] was more than 0.3 µM; in test [2], less than 0.1 µM; in test [3] (setting [5]) it was less than 0.1 µM; in test [4], less than 0.1 µM.

As to `COc1cc2nccc(Oc3ccc(NC(=O)c4c(OC)c(C(C)=O)cn(-c5ccc(F)cc5)c4=O)cc3F)c2nc1OC` [Compound 754, 5-acetyl-N-[4-[(6,7-dimethoxy-1,5-naphthyridin-4-yl)oxy]-3-fluorophenyl]-1-(4-fluorophenyl)-4-methoxy-2-oxopyridine-3-carboxamide], the IC50 in test [1] is more than 0.3 µM; in test [2], less than 0.1 µM; in test [3] (setting [5]), less than 0.1 µM; in test [4], less than 0.1 µM.

For `COCCOc1cc2nccc(Oc3ccc(NC(=O)c4cc(C(C)=O)c(C)n(-c5ccc(F)cc5)c4=O)cc3)c2nc1OC` [Compound 757, 5-acetyl-1-(4-fluorophenyl)-N-[4-[[6-methoxy-7-(2-methoxyethoxy)-1,5-naphthyridin-4-yl]oxy]phenyl]-6-methyl-2-oxopyridine-3-carboxamide], the IC50 in test [1] is more than 0.3 µM; in test [2], less than 0.1 µM; in test [3] (setting [5]) it was less than 0.1 µM; in test [4], less than 0.1 µM.

Consider `COCCOc1cnc2c(Oc3ccc(NC(=O)c4cc(C(C)=O)c(C)n(-c5ccc(F)cc5)c4=O)cc3F)ccnc2c1` [Compound 758, 5-acetyl-N-[3-fluoro-4-[[7-(2-methoxyethoxy)-1,5-naphthyridin-4-yl]oxy]phenyl]-1-(4-fluorophenyl)-6-methyl-2-oxopyridine-3-carboxamide], for which the IC50 was more than 0.3 µM in test [1], less than 0.1 µM in test [2], less than 0.1 µM in test [3] (setting [5]) and less than 0.1 µM in test [4].

As for `COc1cc2nccc(Oc3ccc(NC(=O)c4cn5c(c(-c6ccc(F)cc6)c4=O)OC(C)C5)cc3F)c2nc1OC` (stereo not drawn) [Compound 759, N-[4-[(6,7-dimethoxy-1,5-naphthyridin-4-yl)oxy]-3-fluorophenyl]-8-(4-fluorophenyl)-2-methyl-7-oxo-2,3-dihydro-[1,3]oxazolo[3,2-a]pyridine-6-carboxamide], the IC50 in test [1], in test [2], in test [3] (setting [5]) and in test [4] was less than 0.1 µM throughout.

Consider `COCCOc1cc2c(Oc3ccc(NC(=O)c4cn(C)c(C)c(-c5ccc(F)cc5)c4=O)cc3F)ccnc2nc1OC` [Compound 760, N-[3-fluoro-4-[[7-methoxy-6-(2-methoxyethoxy)-1,8-naphthyridin-4-yl]oxy]phenyl]-5-(4-fluorophenyl)-1,6-dimethyl-4-oxopyridine-3-carboxamide], for which the half-inhibitory concentration (IC50) in test [1] is more than 0.3 µM; in test [2], less than 0.1 µM; in test [3] (setting [5]) it was less than 0.1 µM; in test [4] it was less than 0.1 µM.

Take `COc1cc(NC(=O)c2cn(C)c(C)c(-c3ccc(F)cc3)c2=O)ccc1Oc1ccnc2cc(OC)c(OC)nc12` [Compound 762, N-[4-[(6,7-dimethoxy-1,5-naphthyridin-4-yl)oxy]-3-methoxyphenyl]-5-(4-fluorophenyl)-1,6-dimethyl-4-oxopyridine-3-carboxamide]: the half-maximal inhibitory concentration (IC50) in test [1], in test [2], in test [3] (setting [5]) and in test [4] was less than 0.1 µM in each case.

With `COc1cc2nccc(Oc3ccc(NC(=O)c4cn(C)c(C)c(-c5ccc(F)cc5)c4=O)cc3C)c2nc1OC` [Compound 763, N-[4-[(6,7-dimethoxy-1,5-naphthyridin-4-yl)oxy]-3-methylphenyl]-5-(4-fluorophenyl)-1,6-dimethyl-4-oxopyridine-3-carboxamide], the IC50 in test [1], in test [2], in test [3] (setting [5]) and in test [4] was less than 0.1 µM each time.

Turning to `COc1cc2nccc(Oc3ccc(NC(=O)c4cn(CCO)c(CO)c(-c5ccc(F)cc5C)c4=O)cc3F)c2nc1OC` [Compound 765, N-[4-[(6,7-dimethoxy-1,5-naphthyridin-4-yl)oxy]-3-fluorophenyl]-5-(4-fluoro-2-methylphenyl)-1-(2-hydroxyethyl)-6-(hydroxymethyl)-4-oxopyridine-3-carboxamide], the IC50 in test [1] is more than 0.3 µM; in test [2] it was less than 0.1 µM; in test [3] (setting [5]), less than 0.1 µM; in test [4], less than 0.1 µM.

For `COc1cc2nccc(Oc3ccc(NC(=O)c4cn5c(c(-c6ccc(F)cc6C)c4=O)COCC5)cc3F)c2nc1OC` [Compound 766, N-[4-[(6,7-dimethoxy-1,5-naphthyridin-4-yl)oxy]-3-fluorophenyl]-9-(4-fluoro-2-methylphenyl)-8-oxo-3,4-dihydro-1H-pyrido[2,1-c][1,4]oxazine-7-carboxamide], the 50% inhibitory concentration (IC50) in test [1] is more than 0.3 µM; in test [2] it was less than 0.1 µM; in test [3] (setting [5]), less than 0.1 µM; in test [4] it was less than 0.1 µM.
